In paper PMC9088392 (RSC Advances, 2022):

Target: T1, PaER (Ogataea polymorpha, UniProt A0A1B7SQN2)
T1 sequence (A0A1B7SQN2 1-402): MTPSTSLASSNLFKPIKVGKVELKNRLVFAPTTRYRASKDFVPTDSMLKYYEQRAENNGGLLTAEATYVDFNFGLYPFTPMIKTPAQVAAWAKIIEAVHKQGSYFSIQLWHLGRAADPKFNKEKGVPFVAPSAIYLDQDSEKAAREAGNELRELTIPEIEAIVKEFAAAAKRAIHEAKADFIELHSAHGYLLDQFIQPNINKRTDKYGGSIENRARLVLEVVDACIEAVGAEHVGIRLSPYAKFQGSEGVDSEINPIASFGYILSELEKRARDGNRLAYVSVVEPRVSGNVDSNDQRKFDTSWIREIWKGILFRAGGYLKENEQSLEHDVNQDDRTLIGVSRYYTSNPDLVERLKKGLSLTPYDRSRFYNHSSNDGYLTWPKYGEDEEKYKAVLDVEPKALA
Experiment: flavin released from purified enzyme by heat, RP-HPLC
Format: binding
Settings: non-covalent flavin co-purified with the enzyme

## Cc1cc2nc3c(=O)[nH]c(=O)nc-3n(C[C@H](O)[C@H](O)[C@H](O)COP(=O)(O)O)c2cc1C [FMN]
  flavin released from purified enzyme by heat, RP-HPLC: yellow color as expected for FMN-containing protein and was also confirmed by HPLC
